# Article PMC5218480 (PLoS ONE, 2017)
# System: MV-4-11 cells
# Experiment: Gene expression microarray analysis (Affymetrix PrimeView) and GSEA
# Format: cell-based, human
# Set-up: RFU PODN (11730768_x_at) / Fold change /veh PODN (11730768_x_at) / RFU LINC00158 (11744669_a_at) / Fold change /veh LINC00158 (11744669_a_at) / RFU DUSP10 (11751237_a_at) / Fold change /veh DUSP10 (11751237_a_at) / RFU ID3 (11757404_x_at) / Fold change /veh ID3 (11757404_x_at) / RFU PLEKHG5 (11737974_s_at) / Fold change /veh PLEKHG5 (11737974_s_at) / RFU LRRC4B (11730491_at) / Fold change /veh LRRC4B (11730491_at) / RFU GIMAP4 (11747438_a_at) / Fold change /veh GIMAP4 (11747438_a_at) / RFU KRT8 (11758183_x_at) / Fold change /veh KRT8 (11758183_x_at) / RFU CNN1 (11734310_a_at) / Fold change /veh CNN1 (11734310_a_at) / RFU VPS37D (11726825_at) / Fold change /veh VPS37D (11726825_at) / RFU C10orf10 (11716522_x_at) / Fold change /veh C10orf10 (11716522_x_at) / RFU KIR2DL2 /// KIR2DL4 /// KIR2DL5A /// KIR2DL5B /// KIR2DS1 /// KIR2DS2 /// KIR2DS3 /// KIR2DS4 /// KIR3DL3 /// KIR3DL3 /// KIR3DS1 (11738374_at) / Fold change /veh KIR2DL2 /// KIR2DL4 /// KIR2DL5A /// KIR2DL5B /// KIR2DS1 /// KIR2DS2 /// KIR2DS3 /// KIR2DS4 /// KIR3DL3 /// KIR3DL3 /// KIR3DS1 (11738374_at) / RFU C1QL1 (11718748_at) / Fold change /veh C1QL1 (11718748_at) / RFU TMPRSS4 (11747572_a_at) / Fold change /veh TMPRSS4 (11747572_a_at) / RFU HAMP (11756126_x_at) / Fold change /veh HAMP (11756126_x_at) / RFU RNFT2 (11725882_a_at) / Fold change /veh RNFT2 (11725882_a_at) / RFU NR4A2 (11747474_a_at) / Fold change /veh NR4A2 (11747474_a_at) / RFU ABCC12 (11746883_a_at) / Fold change /veh ABCC12 (11746883_a_at) / RFU TMEM136 (11760407_x_at) / Fold change /veh TMEM136 (11760407_x_at) / RFU CLDN22 /// WWC2 (11732394_at) / Fold change /veh CLDN22 /// WWC2 (11732394_at) / RFU HLA-DPB1 (11760878_x_at) / Fold change /veh HLA-DPB1 (11760878_x_at) / RFU SPINT1 (11716480_a_at) / Fold change /veh SPINT1 (11716480_a_at) / RFU GAP43 (11754022_s_at) / Fold change /veh GAP43 (11754022_s_at) / RFU A4GNT (11735810_at) / Fold change /veh A4GNT (11735810_at) / RFU PRB3 (11715151_x_at) / Fold change /veh PRB3 (11715151_x_at) / RFU TUBB4B (11761932_at) / Fold change /veh TUBB4B (11761932_at) / RFU CAPN14 (11732068_a_at) / Fold change /veh CAPN14 (11732068_a_at) / RFU TMCC2 (11721928_a_at) / Fold change /veh TMCC2 (11721928_a_at) / RFU IRGQ (11745062_a_at) / Fold change /veh IRGQ (11745062_a_at) / RFU FAM174B (11720279_a_at) / Fold change /veh FAM174B (11720279_a_at) / RFU TMPRSS4 (11748680_a_at) / Fold change /veh TMPRSS4 (11748680_a_at) / RFU FAM212B (11763350_a_at) / Fold change /veh FAM212B (11763350_a_at) / RFU PLEKHG5 (11743358_a_at) / Fold change /veh PLEKHG5 (11743358_a_at) / RFU ZSCAN30 (11745921_a_at) / Fold change /veh ZSCAN30 (11745921_a_at) / RFU CMKLR1 (11741424_a_at) / Fold change /veh CMKLR1 (11741424_a_at) / RFU LOC101060620 /// MAPK8IP1 (11723275_at) / Fold change /veh LOC101060620 /// MAPK8IP1 (11723275_at) / RFU SPTSSB (11747773_x_at) / Fold change /veh SPTSSB (11747773_x_at) / RFU PRSS12 (11739890_at) / Fold change /veh PRSS12 (11739890_at) / RFU BIN1 (11741810_x_at) / Fold change /veh BIN1 (11741810_x_at) / RFU WNT11 (11732464_a_at) / Fold change /veh WNT11 (11732464_a_at) / RFU C10orf10 (11716521_a_at) / Fold change /veh C10orf10 (11716521_a_at) / RFU C5orf56 (11738089_at) / Fold change /veh C5orf56 (11738089_at) / RFU CYB561 (11721691_x_at) / Fold change /veh CYB561 (11721691_x_at) / RFU ANKRD19P (11752326_a_at) / Fold change /veh ANKRD19P (11752326_a_at) / RFU OR2T12 /// OR2T33 /// OR2T8 (11738714_s_at) / Fold change /veh OR2T12 /// OR2T33 /// OR2T8 (11738714_s_at) / RFU VCAN (11748164_a_at) / Fold change /veh VCAN (11748164_a_at) / RFU JSRP1 (11732532_at) / Fold change /veh JSRP1 (11732532_at) / RFU KRTAP10-11 (11738290_x_at) / Fold change /veh KRTAP10-11 (11738290_x_at) / RFU MYO3A (11730013_a_at) / Fold change /veh MYO3A (11730013_a_at) / RFU EBF3 (11725865_a_at) / Fold change /veh EBF3 (11725865_a_at) / RFU CAMK2N1 (11719241_x_at) / Fold change /veh CAMK2N1 (11719241_x_at) / RFU C5orf56 (11738088_a_at) / Fold change /veh C5orf56 (11738088_a_at) / RFU OLFML3 (11715873_a_at) / Fold change /veh OLFML3 (11715873_a_at) / RFU LOC100653217 /// NTM (11731650_a_at) / Fold change /veh LOC100653217 /// NTM (11731650_a_at) / RFU MAPK11 (11762145_a_at) / Fold change /veh MAPK11 (11762145_a_at) / RFU FIZ1 (11724087_x_at) / Fold change /veh FIZ1 (11724087_x_at) / RFU OASL (11726364_x_at) / Fold change /veh OASL (11726364_x_at) / RFU SOX15 (11748057_x_at) / Fold change /veh SOX15 (11748057_x_at) / RFU CD79A (11719716_a_at) / Fold change /veh CD79A (11719716_a_at) / RFU HIST1H1D (11736915_at) / Fold change /veh HIST1H1D (11736915_at) / RFU CASKIN2 (11723855_a_at) / Fold change /veh CASKIN2 (11723855_a_at) / RFU LOC730098 (11760151_x_at) / Fold change /veh LOC730098 (11760151_x_at) / RFU OR4N2 (11742367_at) / Fold change /veh OR4N2 (11742367_at) / RFU PRRT2 (11749266_a_at) / Fold change /veh PRRT2 (11749266_a_at) / RFU SNX32 (11753110_a_at) / Fold change /veh SNX32 (11753110_a_at) / RFU CDHR5 (11726645_a_at) / Fold change /veh CDHR5 (11726645_a_at) / RFU RCAN1 (11760418_a_at) / Fold change /veh RCAN1 (11760418_a_at) / RFU FAM167A (11723789_a_at) / Fold change /veh FAM167A (11723789_a_at) / RFU FAM26E (11764081_at) / Fold change /veh FAM26E (11764081_at) / RFU ISYNA1 (11749810_s_at) / Fold change /veh ISYNA1 (11749810_s_at) / RFU ACY1 (11761880_at) / Fold change /veh ACY1 (11761880_at) / RFU 11764098_at / Fold change /veh 11764098_at / RFU SAMD14 (11745864_x_at) / Fold change /veh SAMD14 (11745864_x_at) / RFU NPB (11741838_a_at) / Fold change /veh NPB (11741838_a_at) / RFU TMPRSS6 (11731388_a_at) / Fold change /veh TMPRSS6 (11731388_a_at) / RFU KRTAP10-2 (11738614_at) / Fold change /veh KRTAP10-2 (11738614_at) / RFU ARHGAP8 /// PRR5-ARHGAP8 (11727945_x_at) / Fold change /veh ARHGAP8 /// PRR5-ARHGAP8 (11727945_x_at) / RFU KRTAP5-7 /// NADSYN1 (11734609_at) / Fold change /veh KRTAP5-7 /// NADSYN1 (11734609_at) / RFU RASL12 (11751679_a_at) / Fold change /veh RASL12 (11751679_a_at) / RFU CDKN2B (11736163_a_at) / Fold change /veh CDKN2B (11736163_a_at) / RFU PRF1 (11729649_at) / Fold change /veh PRF1 (11729649_at) / RFU, ZNF638 /// ZNF638-IT1 / Fold change vs veh, ZNF638 /// ZNF638-IT1 / RFU, PANK3 / Fold change vs veh, PANK3 / RFU, SH3YL1 / Fold change vs veh, SH3YL1 / RFU, ZEB2 / Fold change vs veh, ZEB2 / RFU, NRIP1 / Fold change vs veh, NRIP1 / RFU, PTTG1IP / Fold change vs veh, PTTG1IP / RFU, CAPN2 / Fold change vs veh, CAPN2 / RFU, MED14 / Fold change vs veh, MED14 / RFU, SNORA58 / Fold change vs veh, SNORA58 / RFU, C1orf63 / Fold change vs veh, C1orf63 / RFU, LRRFIP1 / Fold change vs veh, LRRFIP1 / RFU, NDUFAF7 / Fold change vs veh, NDUFAF7 / RFU, SLC12A2 / Fold change vs veh, SLC12A2 / RFU, IBTK / Fold change vs veh, IBTK / RFU, ESF1 / Fold change vs veh, ESF1 / Fold change vs veh, TMEM50B / RFU, TAOK1 / Fold change vs veh, TAOK1 / RFU, ACBD3 / Fold change vs veh, ACBD3 / RFU, TMA16 / Fold change vs veh, TMA16 / RFU, RWDD3 / Fold change vs veh, RWDD3 / RFU, BCAT1 / Fold change vs veh, BCAT1 / RFU, EDEM3 / Fold change vs veh, EDEM3 / RFU, TMEM33 / Fold change vs veh, TMEM33 / RFU, WDR75 / Fold change vs veh, WDR75 / RFU, AHCTF1 / Fold change vs veh, AHCTF1 / RFU, TFRC / Fold change vs veh, TFRC / RFU, ZDHHC17 / Fold change vs veh, ZDHHC17 / RFU, NOM1 / Fold change vs veh, NOM1 / RFU, ARL8B / Fold change vs veh, ARL8B / RFU, ZBTB11 / Fold change vs veh, ZBTB11 / RFU, TAMM41 / Fold change vs veh, TAMM41 / RFU, KIAA1704 /// LOC100996395 / Fold change vs veh, KIAA1704 /// LOC100996395 / RFU, ING1 / Fold change vs veh, ING1 / RFU, TRMT61B / Fold change vs veh, TRMT61B / RFU, FUBP3 / Fold change vs veh, FUBP3 / RFU, TP53 / Fold change vs veh, TP53 / RFU, TNKS2 / Fold change vs veh, TNKS2 / RFU, ZFP14 / Fold change vs veh, ZFP14 / RFU, ACTR2 / Fold change vs veh, ACTR2 / RFU, PPP3R1 / Fold change vs veh, PPP3R1 / RFU, PIK3R1 / Fold change vs veh, PIK3R1 / RFU, HNRNPA1 / Fold change vs veh, HNRNPA1 / RFU, RNF170 / Fold change vs veh, RNF170 / RFU, ZNF28 / Fold change vs veh, ZNF28 / RFU, RNGTT / Fold change vs veh, RNGTT / RFU, OGT / Fold change vs veh, OGT / RFU, BRD1 / Fold change vs veh, BRD1 / RFU, MARS / Fold change vs veh, MARS / RFU, ZNF655 / Fold change vs veh, ZNF655 / RFU, FAHD1 / Fold change vs veh, FAHD1 / RFU, BDP1 / Fold change vs veh, BDP1 / RFU, LRRCC1 / Fold change vs veh, LRRCC1 / RFU, ARID1A / Fold change vs veh, ARID1A / RFU, ZNF146 / Fold change vs veh, ZNF146 / RFU, ZNF330 / Fold change vs veh, ZNF330 / RFU, GPN3 / Fold change vs veh, GPN3 / RFU, C9orf123 / Fold change vs veh, C9orf123 / RFU, N4BP2L2 / Fold change vs veh, N4BP2L2 / RFU, ARFIP1 / Fold change vs veh, ARFIP1 / RFU, FAM179B / Fold change vs veh, FAM179B / RFU, BCL10 / Fold change vs veh, BCL10 / RFU, UHRF1BP1L / Fold change vs veh, UHRF1BP1L / RFU, BET1 / Fold change vs veh, BET1 / RFU, CNOT2 / Fold change vs veh, CNOT2 / RFU, ZNF268 / Fold change vs veh, ZNF268 / Fold change vs veh, ZNF507 / RFU, DGCR2 / Fold change vs veh, DGCR2 / RFU, WDSUB1 / Fold change vs veh, WDSUB1 / Fold change vs veh, HSP90B1 /// MIR3652 / RFU, ADSS / Fold change vs veh, ADSS / RFU, GK / Fold change vs veh, GK / RFU, ZNF148 / Fold change vs veh, ZNF148 / RFU, TAF9 / Fold change vs veh, TAF9 / RFU, SLC1A5 / Fold change vs veh, SLC1A5 / RFU, SLMO2 / Fold change vs veh, SLMO2 / RFU, ABCC4 / Fold change vs veh, ABCC4 / RFU, LOC101060439 /// RAP1B / Fold change vs veh, LOC101060439 /// RAP1B / RFU, RFX7 / Fold change vs veh, RFX7 / RFU, GTPBP10 / Fold change vs veh, GTPBP10 / RFU, CNEP1R1 / Fold change vs veh, CNEP1R1 / RFU, BIVM-ERCC5 /// ERCC5 / Fold change vs veh, BIVM-ERCC5 /// ERCC5 / RFU, ILF3 / Fold change vs veh, ILF3 / RFU 11762660_at / Fold change /veh 11762660_at / RFU VCAN (11757783_s_at) / Fold change /veh VCAN (11757783_s_at) / RFU DDX43 (11728927_at) / Fold change /veh DDX43 (11728927_at) / RFU KRT8 (11758188_x_at) / Fold change /veh KRT8 (11758188_x_at) / RFU NKD1 (11759106_at) / Fold change /veh NKD1 (11759106_at) / RFU SRD5A1 (11742802_a_at) / Fold change /veh SRD5A1 (11742802_a_at) / RFU TPSAB1 /// TPSB2 (11721975_s_at) / Fold change /veh TPSAB1 /// TPSB2 (11721975_s_at) / RFU GSTM3 (11746129_a_at) / Fold change /veh GSTM3 (11746129_a_at) / RFU IL23R (11737362_x_at) / Fold change /veh IL23R (11737362_x_at) / RFU TMEM51 (11727254_a_at) / Fold change /veh TMEM51 (11727254_a_at) / RFU PIWIL2 (11732686_x_at) / Fold change /veh PIWIL2 (11732686_x_at) / RFU ORM1 (11744905_x_at) / Fold change /veh ORM1 (11744905_x_at) / RFU CCDC152 (11743942_at) / Fold change /veh CCDC152 (11743942_at) / RFU ECM1 (11717891_a_at) / Fold change /veh ECM1 (11717891_a_at) / RFU IL23R (11748794_a_at) / Fold change /veh IL23R (11748794_a_at) / RFU TNFAIP8L3 (11732012_x_at) / Fold change /veh TNFAIP8L3 (11732012_x_at) / RFU MBOAT4 (11741988_at) / Fold change /veh MBOAT4 (11741988_at) / RFU 11764193_at / Fold change /veh 11764193_at / RFU TMEM53 (11763286_at) / Fold change /veh TMEM53 (11763286_at) / RFU MAGEB2 (11727129_at) / Fold change /veh MAGEB2 (11727129_at) / RFU TMEM200A (11744735_a_at) / Fold change /veh TMEM200A (11744735_a_at) / RFU CCDC152 (11751479_a_at) / Fold change /veh CCDC152 (11751479_a_at) / RFU FAM211A (11726209_a_at) / Fold change /veh FAM211A (11726209_a_at) / RFU RGS16 (11746705_a_at) / Fold change /veh RGS16 (11746705_a_at) / RFU VCAN (11755009_s_at) / Fold change /veh VCAN (11755009_s_at) / RFU RHOB (11743442_s_at) / Fold change /veh RHOB (11743442_s_at) / RFU RGS16 (11720943_a_at) / Fold change /veh RGS16 (11720943_a_at) / RFU RGS16 (11720944_at) / Fold change /veh RGS16 (11720944_at) / RFU, VPS4B / Fold change vs veh, VPS4B / RFU, CREB1 / Fold change vs veh, CREB1 / RFU, DNAJC13 / Fold change vs veh, DNAJC13 / RFU, GNAQ / Fold change vs veh, GNAQ / RFU, CDK5R1 / Fold change vs veh, CDK5R1 / RFU, ZRANB3 / Fold change vs veh, ZRANB3 / RFU, CUL4A / Fold change vs veh, CUL4A / RFU, CCNY / Fold change vs veh, CCNY / RFU, UFL1 / Fold change vs veh, UFL1 / RFU, COG3 / Fold change vs veh, COG3 / RFU, DIAPH2 / Fold change vs veh, DIAPH2 / RFU, SKA2 / Fold change vs veh, SKA2 / RFU, AFF3 / Fold change vs veh, AFF3 / RFU, LMF1 / Fold change vs veh, LMF1 / RFU, IPO11 / Fold change vs veh, IPO11 / RFU, DFFB / Fold change vs veh, DFFB / RFU, FOXP1 / Fold change vs veh, FOXP1 / RFU, CARD8 / Fold change vs veh, CARD8 / RFU, STRN3 / Fold change vs veh, STRN3 / RFU, ADK / Fold change vs veh, ADK / RFU, RASSF2 / Fold change vs veh, RASSF2 / RFU, WIPF1 / Fold change vs veh, WIPF1 / RFU, LARP1B / Fold change vs veh, LARP1B / RFU, RASA1 / Fold change vs veh, RASA1 / RFU, RB1 / Fold change vs veh, RB1 / RFU, PPFIA1 / Fold change vs veh, PPFIA1 / RFU, MAT2A / Fold change vs veh, MAT2A / RFU, CCT5 / Fold change vs veh, CCT5 / RFU, WDR92 / Fold change vs veh, WDR92 / RFU, CUX1 / Fold change vs veh, CUX1 / RFU, TTC7A / Fold change vs veh, TTC7A / RFU, TMEM135 / Fold change vs veh, TMEM135 / RFU, DEPTOR / Fold change vs veh, DEPTOR / RFU, CPM / Fold change vs veh, CPM / RFU, DNAJB6 / Fold change vs veh, DNAJB6 / RFU, CACNA2D3 / Fold change vs veh, CACNA2D3 / RFU, DTX4 / Fold change vs veh, DTX4 / RFU, TFCP2 / Fold change vs veh, TFCP2 / RFU, GMCL1 /// GMCL1P1 / Fold change vs veh, GMCL1 /// GMCL1P1 / RFU, AEBP2 / Fold change vs veh, AEBP2 / RFU, SNHG1 /// SNORD22 /// SNORD25 /// SNORD26 /// SNORD27 /// SNORD28 /// SNORD29 /// SNORD31 / Fold change vs veh, SNHG1 /// SNORD22 /// SNORD25 /// SNORD26 /// SNORD27 /// SNORD28 /// SNORD29 /// SNORD31 / Fold change (Aza/veh), C12orf56 (ProbeSet 11735607_a_at) / Fold change (ACY-1035/veh), C12orf56 (ProbeSet 11735607_a_at) / Fold change (Aza/veh), FGFR1OP (ProbeSet 11751329_s_at) / Fold change (ACY-1035/veh), FGFR1OP (ProbeSet 11751329_s_at) / Fold change (Aza/veh), VPS36 (ProbeSet 11739960_a_at) / Fold change (ACY-1035/veh), VPS36 (ProbeSet 11739960_a_at) / RFU SYPL1 (11715823_x_at) / Fold change /veh SYPL1 (11715823_x_at) / RFU IGFBP7 (11715501_s_at) / Fold change /veh IGFBP7 (11715501_s_at) / RFU REEP3 (11722064_at) / Fold change /veh REEP3 (11722064_at) / RFU IGLL1 (11728026_x_at) / Fold change /veh IGLL1 (11728026_x_at): dose or concentration left out as unconfirmed
# Conditions: MV-4-11 cells, 48 hours
structure (smiles),measurement,value
Nc1ccc(-c2cccs2)cc1NC(=O)c1ccc2c(c1)cc(C1CC1)n2CCN1CCOCC1 [ACY-1035],RFU CAMK2N1 (11719241_x_at),51.25 RFU
